We go through one molecule from patent US20060134774A1, “Detection of protease enzymes” (Marligen Biosciences, Inc., priority 2002, published 2006).

Holding throughout (assay type): cell-based
Assay [1] addresses T1, caspase-3 (Homo sapiens, UniProt P42574).
T1 construct: endogenous in cells; host or cells: human myeloma cell line KAS
T1 sequence (P42574 29-175 limits assumed): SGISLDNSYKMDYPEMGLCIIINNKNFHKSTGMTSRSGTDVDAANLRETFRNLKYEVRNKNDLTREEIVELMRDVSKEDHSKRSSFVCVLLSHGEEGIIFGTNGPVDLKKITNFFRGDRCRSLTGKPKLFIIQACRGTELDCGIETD
T1 sequence (P42574 176-277 limits assumed): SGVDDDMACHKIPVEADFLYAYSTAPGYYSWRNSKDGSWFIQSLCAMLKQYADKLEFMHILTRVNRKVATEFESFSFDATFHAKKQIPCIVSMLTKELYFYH
Put plainly: Single-plex assay for active caspase-3 (bead capture of caspase-3/biotin-DEVD-FMK complex from treated cells). As to conditions: human myeloma cell line KAS, 8 hours, 5 uM camptothecin with 1 uM biotin-DEVD-FMK, vs. culture with inhibitor only. Here is the method: Preparation of Amine-Reactive Beads
Luminex beads were dispersed by vortexing for 15 seconds followed by sonication in a water bath for 2 minutes. To wash, beads were pelleted by centrifugation for 2 minutes at 12,000×g in a microcentrifuge and then resuspended in 100 ul of water. Beads were pelleted again, resuspended in 80 ul of activation buffer (100 mM sodium phosphate, monobasic pH 6.3), vortexed briefly and sonicated for 30 seconds. Reactive n-hydroxysuccinimide (NHS) esters on the bead surface were prepared by adding 10 ul of 50 mg/ml Sulfo-NHS solution (Pierce, Rockland, Ill.) and 10 ul of 50 mg/ml 1-Ethyl-3-[3-dimethylaminopropyl]carbodiimide Hydrochloride (EDC) to the bead suspension, briefly vortexing, and rotating for 20 minutes in the dark. […]
Human myeloma cell line KAS was cultured in RPMI+10% FBS at 37° C. in the presence of 5% CO2. […] After three washes, the cell pellet was vortexed in lysis buffer containing 50 mM Tris-HCl pH 7.5, 150 mM NaCl, 1 mM EDTA, 0.5% NP40, 0.5% Triton X-100 and protease inhibitors (5 ug/ml leupeptin, 2 ug/ml pepstatin A, 1 mM PMSF (phenyl methyl sulfonyl […]). Lysates were stored overnight at −80° C., thawed on ice, vortexed, and spun at 4° C. for 1 hour at 12,000×g in a micro-centrifuge. Protein concentrations in the cleared supernatants were determined spectrophotometrically using Bradford reagent prior to storage at −80° C. […]

Assay [2] addresses T1, caspase-3. The assay is described as follows: Multiplex caspase assay (antibody-coated bead array), caspase-3. The following applies: myeloma cell line Kas, 8 hours camptothecin + biotin-DEVD-FMK vs. biotin-DEVD-FMK alone. Here is the method:
(§1) Using the method described in example 1 above Luminex bead sets (colors) 27, 29, and 31 are coupled to antibodies for caspase-3, caspase-7, and caspase 9 respectively. Immediately before using, beads are vortexed for 30 seconds and sonicated for 2 minutes to disperse. Beads are then mixed to provide a 1000 bead/ul (each color) suspension with equivalent representation of each bead set. Cell lysate was prepared from myeloma cell line Kas as describe in example 1. One culture was treated with biotinylated caspase inhibitor biotin-DEVD-FMK for 8 hours and a second culture was treated for 8 hours with the apoptosis inducer camptothecin and biotinylated caspase inhibitor, biotin-DEVD-FMK. A portion of the multiplex bead suspension (2 ul) was incubated with 50 ul of each sample of cell extract diluted to 10 ug/ml in assay buffer (50 mM Tris pH 7.5, 100 mM NaCl, 0.05% tween-20 and 0.1% BSA). Following a 1 hour incubation while shaking in the dark, beads are washed with 100 ul of assay buffer using a filterplate comprising a 1.2 micron PVDF membrane (Millipore). Beads are resuspended in 50 ul of assay buffer containing 2 ug/ml streptavidin-PE conjugate (Pierce) and shaken in the dark for an additional 30 minutes. […] The presence of labeled caspase enzymes on bead surfaces was detected using the Luminex 100 instrumentation. […]

The target in assay [3] is T2, caspase-7 (Homo sapiens, UniProt P55210).
T2 construct: endogenous in cells; host or cells: human myeloma cell line KAS
T2 sequence (P55210 24-198 limits assumed): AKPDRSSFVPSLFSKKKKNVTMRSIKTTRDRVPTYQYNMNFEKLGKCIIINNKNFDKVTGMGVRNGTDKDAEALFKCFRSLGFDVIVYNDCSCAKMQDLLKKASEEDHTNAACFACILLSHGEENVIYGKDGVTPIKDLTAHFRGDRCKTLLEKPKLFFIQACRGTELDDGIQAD
T2 sequence (P55210 207-303 limits assumed): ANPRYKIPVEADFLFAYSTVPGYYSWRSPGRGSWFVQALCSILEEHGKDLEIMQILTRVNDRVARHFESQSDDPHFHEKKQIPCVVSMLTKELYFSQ
Put plainly: Multiplex caspase assay (antibody-coated bead array), caspase-7. As to conditions: myeloma cell line Kas, 8 hours camptothecin + biotin-DEVD-FMK vs. biotin-DEVD-FMK alone. Here is the method: as §1

For assay [4], the target named is T3, caspase 9 (Homo sapiens, UniProt P55211).
T3 construct: endogenous in cells; host or cells: human myeloma cell line KAS
T3 sequence (P55211 1-416): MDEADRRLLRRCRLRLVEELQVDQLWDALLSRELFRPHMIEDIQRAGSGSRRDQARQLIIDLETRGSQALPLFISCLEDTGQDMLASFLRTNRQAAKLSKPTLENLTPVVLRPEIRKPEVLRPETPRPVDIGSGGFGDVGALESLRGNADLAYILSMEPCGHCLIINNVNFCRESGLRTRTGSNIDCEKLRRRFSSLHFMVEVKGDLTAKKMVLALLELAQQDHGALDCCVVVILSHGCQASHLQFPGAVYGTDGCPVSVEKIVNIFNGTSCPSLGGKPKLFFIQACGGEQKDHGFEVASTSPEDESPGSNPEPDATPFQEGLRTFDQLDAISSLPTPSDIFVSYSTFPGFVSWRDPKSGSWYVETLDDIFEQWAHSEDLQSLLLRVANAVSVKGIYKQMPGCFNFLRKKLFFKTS
Put plainly: Multiplex caspase assay (antibody-coated bead array), caspase 9. The following applies: myeloma cell line Kas, 8 hours camptothecin + biotin-DEVD-FMK vs. biotin-DEVD-FMK alone. As for the experimental part:
as §1

In assay [5] the target is T1, caspase-3. The assay is described as follows: Competitive multiplex inhibitor assay, caspase-3. As to conditions: myeloma cell line Kas, 8 hours camptothecin + biotin-DEVD-FMK. The text has this:
(§2) In another aspect of the invention a labeled inhibitor and a non-labeled inhibitor are both added to the sample. The non-labeled inhibitor competes with the labeled inhibitor for binding to proteases. With this mode of the invention, new inhibitors may be screened for specificity and the binding constants of new inhibitors may be determined by determining the amount of unlabeled inhibitor necessary to reduce the binding of the labeled inhibitor by a certain amount. Using the methods described in example 2 above Luminex bead sets (colors) 27, 29, and 31 are coupled to antibodies for caspase-3, caspase-7, and caspase 9 respectively. Immediately before using, beads are vortexed for 30 seconds and sonicated for 2 minutes to disperse. Beads are then mixed to provide a 1000 bead/ul (each color) suspension with equivalent representation of each bead set. Cell lysate is prepared from the myeloma cell line Kas as described in Example 1 with the exception that an additional portion of cells is treated for 8 hours with camptothecin, the biotinylated caspase inhibitor biotin-DEVD-FMK and an equal amount of an experimental caspase inhibitor called Mx435. The MX435 inhibitor is not labeled with biotin, and therefore, it competes with the labeled inhibitor for binding to each caspase. […] The presence of labeled caspase enzymes on bead surfaces is detected using the Luminex 100 instrumentation. […]

Assay [6] addresses T2, caspase-7. The assay is described as follows: Competitive multiplex inhibitor assay, caspase-7. As to conditions: myeloma cell line Kas, 8 hours camptothecin + biotin-DEVD-FMK.
Source text: as §2

Assay [7] concerns the target T3, caspase 9. Put plainly: Competitive multiplex inhibitor assay, caspase 9. The following applies: myeloma cell line Kas, 8 hours camptothecin + biotin-DEVD-FMK.
Source text: as §2

The structures appear in SMILES notation.

With `CC[C@@]1(O)C(=O)OCc2c1cc1n(c2=O)Cc2cc3ccccc3nc2-1` [camptothecin], the “caspase 3 activity: signal of biotin-labeled inhibitor bound to captured caspase 3 (FIG. 10)” value in assay [1] was “induced”. For the same molecule, the “induction of caspase 3 activity (median fluorescent intensity, FIG. 11)” value in assay [2] is listed as “induced the most”. Besides, the “induction of caspase 7 activity (median fluorescent intensity, FIG. 11)” value in assay [3] is “induced”. Further, the “induction of caspase 9 activity (median fluorescent intensity, FIG. 11)” value in assay [4] is on record as “induced the least”. Moreover, the “induction of caspase 3 activity by camptothecin (median fluorescent intensity, FIG. 12)” value in assay [5] is on record as “induced”. Further, in assay [6], the “induction of caspase 7 activity by camptothecin (median fluorescent intensity, FIG. 12)” value was “induced”. The “induction of caspase 9 activity by camptothecin (median fluorescent intensity, FIG. 12)” value in assay [7] is on record as “induced”.
